Results from PubChem BioAssay (NCI).
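Exposure lasted 48 hours, with cells grown in 96-well plates and compounds tested at five concentrations. GI50 = concentration required for 50% inhibition of growth. TGI is the concentration that stops growth completely.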

Key:
Assay in all cases: NCI-60 cell line screen, 48 h
786-0 renal = system: 786-0 renal
A498 renal = system: A498 renal
A549 NSCLC = system: A549 NSCLC
ACHN renal = system: ACHN renal
BT-549 breast = system: BT-549 breast
CAKI-1 renal = system: CAKI-1 renal
CCRF-CEM leukemia = system: CCRF-CEM leukemia
COLO 205 colon = system: COLO 205 colon
DU-145 prostate = system: DU-145 prostate
EKVX NSCLC = system: EKVX NSCLC
HCC-2998 colon = system: HCC-2998 colon
HCT-116 colon = system: HCT-116 colon
HCT-15 colon = system: HCT-15 colon
HL-60(TB) leukemia = system: HL-60(TB) leukemia
HOP-62 NSCLC = system: HOP-62 NSCLC
HOP-92 NSCLC = system: HOP-92 NSCLC
HS 578T breast = system: HS 578T breast
HT29 colon = system: HT29 colon
IGROV1 ovarian = system: IGROV1 ovarian
K-562 leukemia = system: K-562 leukemia
KM12 colon = system: KM12 colon
LOX IMVI melanoma = system: LOX IMVI melanoma
M14 melanoma = system: M14 melanoma
MALME-3M melanoma = system: MALME-3M melanoma
MCF7 breast = system: MCF7 breast
MDA-MB-231 breast = system: MDA-MB-231 breast
MDA-MB-435 = system: MDA-MB-435
MDA-MB-468 breast = system: MDA-MB-468 breast
MOLT-4 leukemia = system: MOLT-4 leukemia
NCI-H226 lung = system: NCI-H226 lung
NCI-H23 lung = system: NCI-H23 lung
NCI-H460 lung = system: NCI-H460 lung
NCI-H522 lung = system: NCI-H522 lung
NCI/ADR-RES ovarian = system: NCI/ADR-RES ovarian
OVCAR-3 ovarian = system: OVCAR-3 ovarian
OVCAR-4 ovarian = system: OVCAR-4 ovarian
OVCAR-5 ovarian = system: OVCAR-5 ovarian
OVCAR-8 ovarian = system: OVCAR-8 ovarian
PC-3 prostate = system: PC-3 prostate
RPMI-8226 leukemia = system: RPMI-8226 leukemia
RXF 393 renal = system: RXF 393 renal
SF-268 CNS = system: SF-268 CNS
SF-295 CNS = system: SF-295 CNS
SF-539 CNS = system: SF-539 CNS
SK-MEL-2 melanoma = system: SK-MEL-2 melanoma
SK-MEL-28 melanoma = system: SK-MEL-28 melanoma
SK-MEL-5 melanoma = system: SK-MEL-5 melanoma
SK-OV-3 ovarian = system: SK-OV-3 ovarian
SN12C renal = system: SN12C renal
SNB-19 CNS = system: SNB-19 CNS
SNB-75 CNS = system: SNB-75 CNS
SR leukemia = system: SR leukemia
SW-620 colon = system: SW-620 colon
T-47D breast = system: T-47D breast
TK-10 renal = system: TK-10 renal
U251 CNS = system: U251 CNS
UACC-257 melanoma = system: UACC-257 melanoma
UACC-62 melanoma = system: UACC-62 melanoma
UO-31 renal = system: UO-31 renal

## Cc1ccc(-c2nc(C#N)c(S(=O)(=O)N3CCN(S(=O)(=O)c4ccccc4)CC3)o2)cc1
786-0 renal
  GI50: > 100 µM
  TGI: > 100 µM
A498 renal
  GI50: > 100 µM
  TGI: > 100 µM
A549 NSCLC
  GI50: > 100 µM
  TGI: > 100 µM
ACHN renal
  GI50: > 100 µM
  TGI: > 100 µM
BT-549 breast
  GI50: > 100 µM
  TGI: > 100 µM
CAKI-1 renal
  GI50: > 100 µM
  TGI: > 100 µM
CCRF-CEM leukemia
  GI50: > 100 µM
  TGI: > 100 µM
COLO 205 colon
  GI50: > 100 µM
  TGI: > 100 µM
DU-145 prostate
  GI50: > 100 µM
  TGI: > 100 µM
EKVX NSCLC
  GI50: > 100 µM
  TGI: > 100 µM
HCC-2998 colon
  GI50: > 100 µM
  TGI: > 100 µM
HCT-116 colon
  GI50: > 100 µM
  TGI: > 100 µM
HCT-15 colon
  GI50: > 100 µM
  TGI: > 100 µM
HL-60(TB) leukemia
  GI50: > 100 µM
  TGI: > 100 µM
HOP-62 NSCLC
  GI50: > 100 µM
  TGI: > 100 µM
HOP-92 NSCLC
  GI50: > 100 µM
  TGI: > 100 µM
HS 578T breast
  GI50: > 100 µM
  TGI: > 100 µM
HT29 colon
  GI50: > 100 µM
  TGI: > 100 µM
IGROV1 ovarian
  GI50: > 100 µM
  TGI: > 100 µM
K-562 leukemia
  GI50: > 100 µM
  TGI: > 100 µM
KM12 colon
  GI50: > 100 µM
  TGI: > 100 µM
LOX IMVI melanoma
  GI50: > 100 µM
  TGI: > 100 µM
M14 melanoma
  GI50: > 100 µM
  TGI: > 100 µM
MALME-3M melanoma
  GI50: > 100 µM
  TGI: > 100 µM
MCF7 breast
  GI50: > 100 µM
  TGI: > 100 µM
MDA-MB-231 breast
  GI50: > 100 µM
  TGI: > 100 µM
MDA-MB-435
  GI50: > 100 µM
  TGI: > 100 µM
MDA-MB-468 breast
  GI50: > 100 µM
  TGI: > 100 µM
MOLT-4 leukemia
  GI50: > 100 µM
  TGI: > 100 µM
NCI-H226 lung
  GI50: > 100 µM
  TGI: > 100 µM
NCI-H23 lung
  GI50: > 100 µM
  TGI: > 100 µM
NCI-H460 lung
  GI50: > 100 µM
  TGI: > 100 µM
NCI-H522 lung
  GI50: > 100 µM
  TGI: > 100 µM
NCI/ADR-RES ovarian
  GI50: > 100 µM
  TGI: > 100 µM
OVCAR-3 ovarian
  GI50: > 100 µM
  TGI: > 100 µM
OVCAR-4 ovarian
  GI50: > 100 µM
  TGI: > 100 µM
OVCAR-5 ovarian
  GI50: > 100 µM
  TGI: > 100 µM
OVCAR-8 ovarian
  GI50: > 100 µM
  TGI: > 100 µM
PC-3 prostate
  GI50: > 100 µM
  TGI: > 100 µM
RPMI-8226 leukemia
  GI50: > 100 µM
  TGI: > 100 µM
RXF 393 renal
  GI50: > 100 µM
  TGI: > 100 µM
SF-268 CNS
  GI50: > 100 µM
  TGI: > 100 µM
SF-295 CNS
  GI50: > 100 µM
  TGI: > 100 µM
SF-539 CNS
  GI50: > 100 µM
  TGI: > 100 µM
SK-MEL-2 melanoma
  GI50: > 100 µM
  TGI: > 100 µM
SK-MEL-28 melanoma
  GI50: > 100 µM
  TGI: > 100 µM
SK-MEL-5 melanoma
  GI50: > 100 µM
  TGI: > 100 µM
SK-OV-3 ovarian
  GI50: > 100 µM
  TGI: > 100 µM
SN12C renal
  GI50: > 100 µM
  TGI: > 100 µM
SNB-19 CNS
  GI50: > 100 µM
  TGI: > 100 µM
SNB-75 CNS
  GI50: > 100 µM
  TGI: > 100 µM
SR leukemia
  GI50: > 100 µM
  TGI: > 100 µM
SW-620 colon
  GI50: > 100 µM
  TGI: > 100 µM
T-47D breast
  GI50: > 100 µM
  TGI: > 100 µM
TK-10 renal
  GI50: > 100 µM
  TGI: > 100 µM
U251 CNS
  GI50: > 100 µM
  TGI: > 100 µM
UACC-257 melanoma
  GI50: > 100 µM
  TGI: > 100 µM
UACC-62 melanoma
  GI50: > 100 µM
  TGI: > 100 µM
UO-31 renal
  GI50: > 100 µM
  TGI: > 100 µM
